Assay results as given in patent US5616557A, “Process for selectively inhibiting activity of endotoxin” (Wako Pure Chemical Industries, Ltd., priority 1993, dated 1997).

Tested on: E. coli 0128:B12 LPS
Assay: Limulus test of ET spiked plasma, Example 4
Assay type: biochemical
Settings: 0.009 w/v % of Px B alone; ET 2 ng/ml, 80° C. 5 minutes (FIG. 4)
Protocol: To 0.1 ml of the LAL solution was added 0.1 ml of the aforesaid diluted plasma, and stirred, after which a time required for reducing the transmittance of the resulting mixture by 5% (hereinafter abbreviated as "Tg") was measured while maintaining the temperature at 37° C. The ET concentration in the diluted plasma was determined on the basis of the thus obtained Tg value by use of a calibration curve showing the relationship between ET concentration and Tg which had been previously obtained by carrying out the same measurement as described above except for using ET solutions having various known concentrations in place of the samples.
To 1.3 ml of normal human heparinized plasma was added 13 μl of ET solution having a predetermined concentration, and 100 μl of the resulting ET spiked plasma was diluted 10 times with 900 μl of distilled water for injection, each of aqueous surfactant solutions having predetermined concentrations, each of aqueous Px B solutions having predetermined concentrations, or each of aqueous Px B solutions having predetermined concentrations and containing 0.1 w/v % or 0.2 w/v % of the surfactant (polyoxyethylene glycol p-t-octylphenyl ether), respectively. […] The ET concentration in the diluted plasma thus obtained was measured in the same manner as in Example 1.

polymyxin B [Px B]
ET activity in plasma: completely inhibited
